Patent US8470829B2 (priority 2004, dated 2013)
Like-named read-outs stand apart in the source and are kept apart here.

Tests used:
human androgen receptor [1] = target: T1, human androgen receptor (Homo sapiens, UniProt P10275); experiment: Measurement of agonist effect on androgen receptor (reporter gene assay, 11A11B2 cells); type: cell-based; details: compound concentration showing a transcription activity of 5% (0.1 nmol/L DHT = 100%, assay medium alone = 0%), 48 hours
T1 construct: expressed in transfected cells
T1 sequence (P10275 1-920): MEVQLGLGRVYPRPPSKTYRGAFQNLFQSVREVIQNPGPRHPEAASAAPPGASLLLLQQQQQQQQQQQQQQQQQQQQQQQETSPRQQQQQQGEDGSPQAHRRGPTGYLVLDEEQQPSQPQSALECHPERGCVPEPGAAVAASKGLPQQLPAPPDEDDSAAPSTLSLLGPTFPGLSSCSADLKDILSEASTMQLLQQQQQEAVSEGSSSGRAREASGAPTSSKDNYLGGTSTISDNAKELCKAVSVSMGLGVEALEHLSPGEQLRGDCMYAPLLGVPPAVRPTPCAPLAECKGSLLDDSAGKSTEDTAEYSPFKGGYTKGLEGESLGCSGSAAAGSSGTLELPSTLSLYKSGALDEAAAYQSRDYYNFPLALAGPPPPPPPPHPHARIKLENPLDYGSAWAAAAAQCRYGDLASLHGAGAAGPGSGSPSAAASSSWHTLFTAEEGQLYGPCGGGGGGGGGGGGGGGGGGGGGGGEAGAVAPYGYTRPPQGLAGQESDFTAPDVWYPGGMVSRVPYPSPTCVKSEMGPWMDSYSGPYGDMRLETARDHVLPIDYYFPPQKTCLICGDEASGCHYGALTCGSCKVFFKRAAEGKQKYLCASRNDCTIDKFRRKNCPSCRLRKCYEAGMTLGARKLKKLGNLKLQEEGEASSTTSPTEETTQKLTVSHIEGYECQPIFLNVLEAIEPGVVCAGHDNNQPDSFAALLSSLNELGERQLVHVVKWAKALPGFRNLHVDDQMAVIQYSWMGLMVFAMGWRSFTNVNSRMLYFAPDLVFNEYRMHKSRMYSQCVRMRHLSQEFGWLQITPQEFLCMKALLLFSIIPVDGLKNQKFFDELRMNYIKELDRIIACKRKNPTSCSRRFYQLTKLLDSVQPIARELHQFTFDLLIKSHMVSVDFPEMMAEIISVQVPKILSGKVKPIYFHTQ
Procedure: (§1) HeLa cells (purchased from Dai-Nippon Seiyaku K. K.) were cultured overnight in Dulbecco's Modified Eagle Medium containing no phenol red, but containing 3% charcoal-treated fetal bovine serum (hereafter referred to as DCC-FBS) (this medium is hereafter referred to as phenol-red-free DMEM). An MMTV-Luc-Hyg vector (reporter plasmid with mouse mammary tumor virus long terminal repeat, containing an androgen response element and a hygromycin resistance gene: a vector obtained by substituting a chloramphenicol acetyl transferease gene of a GM-CAT vector (A.T.C.C No. 67282) purchased from the A.T.C.C. with the firefly luciferase gene, and inserting a hygromycin resistance gene as a drug resistant gene), and pSG5-hAR-neo (human androgen receptor expression vector: a vector having an androgen receptor gene under the control of the SV40 promoter, and having a neomycin resistance gene inserted as a drug resistance gene) were transfected into the HeLa cells using an FuGENE™ 6 Transfection Reagent (obtained from Roche).
(§2) The clone cells thus obtained (11A11B2 cells) were maintained and propagated using DMEM containing 400 μg/mL neomycin, 200 μg/mL hygromycin and 10% FBS, and were propagated using phenol-red-free DMEM containing 10% DCC-FBS three to four days prior to the performance of an androgen receptor reporter gene assay.
The 11A11B2 cells were inoculated in a white clear-bottomed 96-well microplate (COSTAR) so that the cell concentration was 1.0×10^4/well, and were cultured overnight using phenol-red-free DMEM containing 3% DCC-FBS (hereafter referred to as the assay medium). Samples of the assay medium containing the compounds of the Examples and compounds of the Comparative Examples were added so that the final concentrations of the compounds of the Examples and compounds of the Comparative Examples were 1, 10, 100, 1,000 and 10,000 nmol/L), and the cells were cultured for 48 hours, after which the transcription activity value was measured. The transcription activity was measured using a Bright-Glo™ Luciferase Assay System (Promega).
The transcription activity rates of the compounds of the Examples were calculated from the transcription activity measured by the abovementioned method, with the transcription activity value obtained at 0.1 nmol/L DHT taken as 100%, and the transcription activity value in the case of the assay medium alone taken as 0%. The compound concentration showing a transcription activity of 5% (EC5 value) was calculated from a linear equation for two points on either side of 5%.

human androgen receptor [2] = target: T1, human androgen receptor; experiment: Investigation of antagonist effect on androgen receptor (reporter gene assay, 11A11B2 cells, with DHT); type: cell-based
Procedure: as §1, §2
The 11A11B2 cells were inoculated in a white clear-bottomed 96-well microplate (COSTAR) so that the cell concentration was 1.0×10^4/well, and were cultured overnight. The assay medium containing DHT was added so that the final concentration of DHT was 0.1 nmol/L, and samples of the assay medium containing the compounds of the Examples or compounds of the Comparative Examples were added so that the final concentrations of the compounds of the Examples or compounds of the Comparative Examples were 1, 10, 100, 1,000 and 10,000 nmol/L, respectively. After culturing for 48, hours, the transcription activity values were measured. The transcription activity was measured using a Bright-Glo™ Luciferase Assay System (Promega).
The transcription activity rates of the compounds of the Examples were calculated from the transcription activity measured by the abovementioned method, with the transcription activity value obtained at 0.1 nmol/L DHT taken as 100%, and the transcription activity value in the case of the assay, medium alone taken as 0%.

[3] = with 0.1 nmol/L DHT, transcription activity rate of Test Example 1 subtracted, 11A11B2 cells, 48 hours, read-out: IC50

Row | Structure (SMILES) | EC5 (human androgen receptor [1]) | IC50 (human androgen receptor [2]) | IC50 (human androgen receptor [2]; [3])
1 | CN1C(=S)N(c2ccc(C#N)c(C(F)(F)F)c2)C(=O)C1(C)C [Comparative Example 1, 4-(5-oxo-2-thioxo-3,4,4-trimethyl-1-imidazolidinyl)-2-trifluoromethylbenzonitrile, reference compound] | 8e-05 µM | – | –
2 | CC(=O)NCCN1C(=S)N(c2ccc(C#N)c(C(F)(F)F)c2)C(=O)C1(C)C [Comparative Example 2, 4-[3′-(2″-N-acetylaminoethyl)-4′,4′-dimethyl-5′-oxo-2′-thioxo-1′-imidazolidinyl]-2-trifluoromethylbenzonitrile, reference compound] | 3 µM | – | –
3 | CCOC(=O)N1CCC(N2C(=S)N(c3ccc(C#N)c(Cl)c3)C(=O)C2(C)C)CC1 [Example 2, 4-[3-(1-ethoxycarbonylpiperidin-4-yl)-4,4-dimethyl-5-oxo-2-thioxoimidazolidin-1-yl]-2-chlorobenzonitrile] | 8 µM | 80 nM | –
4 | CC(=O)N1CCC(N2C(=S)N(c3ccc(C#N)c(C(F)(F)F)c3)C(=O)C2(C)C)CC1 [Example 4, 4-[3-(1-acetylpiperidin-4-yl)-4,4-dimethyl-5-oxo-2-thioxoimidazolidin-1-yl]-2-trifluoromethylbenzonitrile] | >10 µM | – | 300 nM
5 | CCS(=O)(=O)N1CCC(N2C(=S)N(c3ccc(C#N)c(C(F)(F)F)c3)C(=O)C2(C)C)CC1 [Example 5, 4-[3-(1-ethanesulfonylpiperidin-4-yl)-4,4-dimethyl-5-oxo-2-thioxoimidazolidin-1-yl]-2-trifluoromethylbenzonitrile] | >10 µM | 300 nM | –
6 | CC(=O)N1CCC(N2C(=S)N(c3ccc(C#N)c(Cl)c3)C(=O)C2(C)C)CC1 [Example 6, 4-[3-(1-acetylpiperidin-4-yl)-4,4-dimethyl-5-oxo-2-thioxoimidazolidin-1-yl]-2-chlorobenzonitrile] | >10 µM | 200 nM | –
7 | CCC(=O)N1CCC(N2C(=S)N(c3ccc(C#N)c(Cl)c3)C(=O)C2(C)C)CC1 [Example 7, 4-[3-(1-propionylpiperidin-4-yl)-4,4-dimethyl-5-oxo-2-thioxoimidazolidin-1-yl]-2-chlorobenzonitrile] | >10 µM | 300 nM | –
8 | CCCS(=O)(=O)N1CCC(N2C(=S)N(c3ccc(C#N)c(Cl)c3)C(=O)C2(C)C)CC1 [Example 8, 4-[3-(1-propanesulfonylpiperidin-4-yl)-4,4-dimethyl-5-oxo-2-thioxoimidazolidin-1-yl]-2-chlorobenzonitrile] | >10 µM | 300 nM | –
9 | CCS(=O)(=O)N1CCC(N2C(=S)N(c3ccc(C#N)c(Cl)c3)C(=O)C2(C)C)CC1 [Example 9, 4-[3-(1-ethanesulfonylpiperidin-4-yl)-4,4-dimethyl-5-oxo-2-thioxoimidazolidin-1-yl]-2-chlorobenzonitrile] | >10 µM | 300 nM | –
10 | CCS(=O)(=O)N1CCC(N2C(=O)N(c3ccc(C#N)c(C(F)(F)F)c3C)C(=O)C2(C)C)CC1 [Example 10, 4-[3-(1-ethanesulfonylpiperidin-4-yl)-4,4-dimethyl-2,5-dioxoimidazolidin-1-yl]-2-trifluoromethyl-3-methylbenzonitrile] | >10 µM | – | 600 nM
11 | CCCS(=O)(=O)N1CCC(N2C(=O)N(c3ccc(C#N)c(Cl)c3C)C(=O)C2(C)C)CC1 [Example 11, 4-[3-(1-propanesulfonylpiperidin-4-yl)-4,4-dimethyl-2,5-dioxoimidazolidin-1-yl]-2-chloro-3-methylbenzonitrile] | >10 µM | – | 300 nM
12 | CCNC(=O)N1CCC(N2C(=S)N(c3ccc(C#N)c(C(F)(F)F)c3)C(=O)C2(C)C)CC1 [Example 38, 4-[3-(1-ethylaminocarbonylpiperidin-4-yl)-4,4-dimethyl-5-oxo-2-thioxoimidazolidin-1-yl]-2-trifluoromethylbenzonitrile] | >10 µM | – | –
13 | CCNC(=O)N1CCC(N2C(=S)N(c3ccc(C#N)c(Cl)c3)C(=O)C2(C)C)CC1 [Example 40, 4-[3-(1-ethylaminocarbonylpiperidin-4-yl)-4,4-dimethyl-5-oxo-2-thioxoimidazolidin-1-yl]-2-chlorobenzonitrile] | >10 µM | – | –
14 | CCNS(=O)(=O)N1CCC(N2C(=S)N(c3ccc(C#N)c(C(F)(F)F)c3)C(=O)C2(C)C)CC1 [Example 42, 4-[3-(1-ethylaminosulfonylpiperidin-4-yl)-4,4-dimethyl-5-oxo-2-thioxoimidazolidin-1-yl]-2-trifluoromethylbenzonitrile] | – | – | 700 nM
15 | CC1(C)C(=O)N(c2ccc(C#N)c(C(F)(F)F)c2)C(=S)N1C1CCN(C(=O)OCC(O)CO)CC1 (stereo not shown) [Example 45, 4-[3-(4-cyano-3-trifluoromethylphenyl)-5,5-dimethyl-4-oxo-2-thioxoimidazolidin-1-yl]piperidine-1-carboxylic acid 2,3-dihydroxypropyl ester] | >10 µM | – | –
16 | COc1cc(N2C(=O)C(C)(C)N(c3ccc(Cl)c(NC(=O)OCC(O)CO)c3)C2=S)ccc1C#N (stereo not shown) [Example 51, {2-chloro-5-[3-(4-cyano-3-methoxyphenyl)-5,5-dimethyl-4-oxo-2-thioxoimidazolidin-1-yl]phenyl}-carbamic acid 2,3-dihydroxypropyl ester] | >10 µM | – | –
17 | CN(C)CCOC(=O)Nc1cc(N2C(=S)N(c3ccc(C#N)c(Cl)c3)C(=O)C2(C)C)ccc1Cl [Example 53, {2-chloro-5-[3-(4-cyano-3-chlorophenyl)-5,5-dimethyl-4-oxo-2-thioxoimidazolidin-1-yl]phenyl}-carbamic acid 2-dimethylaminoethyl ester] | >10 µM | – | –
18 | CC1(C)C(=O)N(c2ccc(C#N)c(Cl)c2)C(=S)N1c1ccc2sc(NC(=O)NCC(O)CO)nc2c1 (stereo not shown) [Example 62, 1-{5-[3-(3-chloro-4-cyanophenyl)-5,5-dimethyl-4-oxo-2-thioxoimidazolidin-1-yl]benzothiazol-2-yl}-3-(2,3-dihydroxypropyl)urea] | >10 µM | – | –
19 | CC1(C)C(=O)N(c2ccc(C#N)c(C(F)(F)F)c2)C(=S)N1c1ccc(Cl)c(NC(=O)CCC(N)=O)c1 [Example 67, N-{2-chloro-5-[3-(4-cyano-3-trifluoromethylphenyl)-5,5-dimethyl-4-oxo-2-thioxoimidazolidin-1-yl]phenyl}-succinamide] | >10 µM | – | –
